Measurements from patent publication US20040082635A1, “Fused cyclic compounds and medicinal use thereof” (priority 2001, published 2004).
Where a name gives a salt, the structure may show the parent alone.

Target: T1, HCV polymerase (Hepatitis C virus genotype 1b, UniProt P26663)
T1 construct: a region encoding NS5B (591 amino acids; J Virol 1991 Mar, 65(3), 1105-13) was amplified by PCR; 6 His (N); made in house; host or cells: Escherichia coli
Test: biochemical
Settings: read-out: HCV polymerase inhibitory activity IC50

T1 sequence (P26663 2420-3010): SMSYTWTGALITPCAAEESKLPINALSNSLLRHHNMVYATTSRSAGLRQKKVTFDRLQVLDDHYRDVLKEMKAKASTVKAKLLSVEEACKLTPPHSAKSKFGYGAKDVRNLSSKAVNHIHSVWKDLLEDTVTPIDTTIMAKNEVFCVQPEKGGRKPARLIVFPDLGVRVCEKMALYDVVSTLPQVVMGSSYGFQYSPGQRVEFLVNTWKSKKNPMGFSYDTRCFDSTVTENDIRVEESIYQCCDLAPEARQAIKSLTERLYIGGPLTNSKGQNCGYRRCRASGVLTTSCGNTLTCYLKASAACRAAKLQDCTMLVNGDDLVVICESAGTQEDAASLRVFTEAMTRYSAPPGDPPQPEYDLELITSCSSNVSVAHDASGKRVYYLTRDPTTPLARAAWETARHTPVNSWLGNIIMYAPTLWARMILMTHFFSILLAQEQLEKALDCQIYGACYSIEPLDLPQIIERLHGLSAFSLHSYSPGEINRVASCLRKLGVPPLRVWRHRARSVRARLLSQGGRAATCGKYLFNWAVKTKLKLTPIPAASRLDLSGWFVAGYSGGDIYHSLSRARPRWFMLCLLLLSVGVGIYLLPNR

Compound | IC50
CCCNC(=O)c1ccc(-c2ccc(Cl)cc2)c(COc2ccc(-c3nc4cc(C(=O)O)ccc4n3C3CCCCC3)c(F)c2)c1 [Example 389, 2-{4-[2-(4-chlorophenyl)-5-(propylcarbamoyl)benzyloxy]-2-fluorophenyl}-1-cyclohexylbenzimidazole-5-carboxylic acid hydrochloride] | 12 nM
CCNC(=O)c1ccc(-c2ccc(Cl)cc2)c(COc2ccc(-c3nc4cc(C(=O)O)ccc4n3C3CCCCC3)c(F)c2)c1 [Example 390, 2-{4-[2-(4-chlorophenyl)-5-(ethylcarbamoyl)benzyloxy]-2-fluorophenyl}-1-cyclohexylbenzimidazole-5-carboxylic acid hydrochloride] | 14 nM
CN(C)C(=O)Nc1ccc(-c2ccc(Cl)cc2)c(COc2ccc(-c3nc4cc(C(=O)O)ccc4n3C3CCCCC3)c(F)c2)c1 [Example 391, 2-{4-[2-(4-chlorophenyl)-5-{(dimethylcarbamoyl)amino}benzyloxy]-2-fluorophenyl}-1-cyclohexylbenzimidazole-5-carboxylic acid hydrochloride] | 17 nM
O=C(O)c1ccc2c(c1)nc(-c1ccc(OCc3cc(NC(=O)N4CCOCC4)ccc3-c3ccc(Cl)cc3)cc1F)n2C1CCCCC1 [Example 392, 2-{4-[2-(4-chlorophenyl)-5-{(morpholinocarbonyl)amino}benzyloxy]-2-fluorophenyl}-1-cyclohexylbenzimidazole-5-carboxylic acid hydrochloride] | 14 nM
NC(=O)Nc1ccc(-c2ccc(Cl)cc2)c(COc2ccc(-c3nc4cc(C(=O)O)ccc4n3C3CCCCC3)c(F)c2)c1 [Example 393, 2-{4-[2-(4-chlorophenyl)-5-ureidobenzyloxy]-2-fluorophenyl}-1-cyclohexylbenzimidazole-5-carboxylic acid hydrochloride] | 11 nM
CCNC(=O)Nc1ccc(-c2ccc(Cl)cc2)c(COc2ccc(-c3nc4cc(C(=O)O)ccc4n3C3CCCCC3)c(F)c2)c1 [Example 394, 2-{4-[2-(4-chlorophenyl)-5-{(ethylcarbamoyl)amino}benzyloxy]-2-fluorophenyl}-1-cyclohexylbenzimidazole-5-carboxylic acid hydrochloride] | 19 nM
CC(C)NC(=O)Nc1ccc(-c2ccc(Cl)cc2)c(COc2ccc(-c3nc4cc(C(=O)O)ccc4n3C3CCCCC3)c(F)c2)c1 [Example 395, 2-{4-[2-(4-chlorophenyl)-5-{(isopropylcarbamoyl)amino}benzyloxy]-2-fluorophenyl}-1-cyclohexylbenzimidazole-5-carboxylic acid hydrochloride] | 16 nM
CC(C)NC(=O)c1ccc(-c2ccc(F)c(F)c2)c(COc2ccc(-c3nc4cc(C(=O)O)ccc4n3C3CCCCC3)c(F)c2)c1 [Example 396, 2-{4-[2-(3,4-difluorophenyl)-5-(isopropylcarbamoyl)benzyloxy]-2-fluorophenyl}-1-cyclohexylbenzimidazole-5-carboxylic acid] | 25 nM
CC(C)NC(=O)c1ccc(-c2ccc(F)cc2F)c(COc2ccc(-c3nc4cc(C(=O)O)ccc4n3C3CCCCC3)c(F)c2)c1 [Example 397, 2-{4-[2-(2,4-difluorophenyl)-5-(isopropylcarbamoyl)benzyloxy]-2-fluorophenyl}-1-cyclohexylbenzimidazole-5-carboxylic acid hydrochloride] | 37 nM
CC(C)NC(=O)c1ccc(-c2cc(Cl)cc(Cl)c2)c(COc2ccc(-c3nc4cc(C(=O)O)ccc4n3C3CCCCC3)c(F)c2)c1 [Example 398, 2-{4-[2-(3,5-dichlorophenyl)-5-(isopropylcarbamoyl)benzyloxy]-2-fluorophenyl}-1-cyclohexylbenzimidazole-5-carboxylic acid hydrochloride] | 77 nM
CC(C)NC(=O)c1ccc(-c2ccc(F)c(Cl)c2)c(COc2ccc(-c3nc4cc(C(=O)O)ccc4n3C3CCCCC3)c(F)c2)c1 [Example 399, 2-{4-[2-(3-chloro-4-fluorophenyl)-5-(isopropylcarbamoyl)-benzyloxy]-2-fluorophenyl}-1-cyclohexylbenzimidazole-5-carboxylic acid hydrochloride] | 32 nM
CC(C)NS(=O)(=O)c1ccc(-c2ccc(Cl)cc2)c(COc2ccc(-c3nc4cc(C(=O)O)ccc4n3C3CCCCC3)c(F)c2)c1 [Example 409, 2-{4-[2-(4-chlorophenyl)-5-(isopropylaminosulfonyl)benzyloxy]-2-fluorophenyl}-1-cyclohexylbenzimidazole-5-carboxylic acid hydrochloride] | 20 nM
CN(C)C(=O)c1ccc(-c2ccc(Cl)cc2)c(COc2ccc(-c3nc4cc(C(=O)O)ccc4n3C3CCCC3)c(F)c2)c1 [Example 410, 2-{4-[2-(4-chlorophenyl)-5-(dimethylcarbamoyl)benzyloxy]-2-fluorophenyl}-1-cyclopentylbenzimidazole-5-carboxylic acid hydrochloride] | 18 nM
O=C(O)c1ccc2c(c1)nc(-c1ccc(OCc3cc(C(=O)N4CCC(O)CC4)ccc3-c3ccc(Cl)cc3)cc1F)n2C1CCCC1 [Example 411, 2-{4-[2-(4-chlorophenyl)-5-(4-hydroxypiperidin-1-ylcarbonyl)-benzyloxy]-2-fluorophenyl}-1-cyclopentylbenzimidazole-5-carboxylic acid hydrochloride] | 15 nM
CC(C)NC(=O)c1ccc(-c2ccc(Cl)cc2)c(COc2ccc(-c3nc4cc(C(=O)O)ccc4n3C3CCCC3)c(F)c2)c1 [Example 412, 2-{4-[2-(4-chlorophenyl)-5-(isopropylcarbamoyl)benzyloxy]-2-fluorophenyl}-1-cyclopentylbenzimidazole-5-carboxylic acid hydrochloride] | 19 nM
CC(C)NC(=O)c1ccc(-c2ccc(Cl)cc2)c(COc2ccc(-c3nc4cc(C(=O)O)ccc4n3C3CCCC3)cc2)c1 [Example 413, 2-{4-[2-(4-chlorophenyl)-5-(isopropylcarbamoyl)benzyloxy]phenyl}-1-cyclopentylbenzimidazole-5-carboxylic acid hydrochloride] | 26 nM
CN(C)C(=O)c1ccc(-c2ccc(Cl)cc2)c(COc2ccc(-c3nc4cc(C(=O)O)ccc4n3C3CCCC3)cc2)c1 [Example 414, 2-{4-[2-(4-chlorophenyl)-5-(dimethylcarbamoyl)benzyloxy]phenyl}-1-cyclopentylbenzimidazole-5-carboxylic acid hydrochloride] | 24 nM
O=C(O)c1ccc2c(c1)nc(-c1ccc(OCc3cc(C(=O)N4CCC(O)CC4)ccc3-c3ccc(Cl)cc3)cc1)n2C1CCCC1 [Example 415, 2-{4-[2-(4-chlorophenyl)-5-(4-hydroxypiperidin-1-ylcarbonyl)benzyloxy]phenyl}-1-cyclopentylbenzimidazole-5-carboxylic acid hydrochloride] | 19 nM
CC(C)NC(=O)c1ccc(-c2ccc(Cl)cc2)c(COc2ccc(-c3nc4cc(C(=O)O)ccc4n3C3CCSCC3)cc2)c1 [Example 416, 2-{4-[2-(4-chlorophenyl)-5-(isopropylcarbamoyl)benzyloxy]phenyl}-1-(tetrahydrothiopyran-4-yl)benzimidazole-5-carboxylic acid hydrochloride] | 24 nM
O=C(O)c1ccc2c(c1)nc(-c1ccc(OCc3cc(C(=O)N4CCCC4)ccc3-c3ccc(Cl)cc3)cc1)n2C1CCSCC1 [Example 417, 2-{4-[2-(4-chlorophenyl)-5-(pyrrolidin-1-ylcarbonyl)benzyloxy]phenyl}-1-(tetrahydrothiopyran-4-yl)benzimidazole-5-carboxylic acid hydrochloride] | 29 nM
CC(C)NC(=O)c1ccc(-c2ccc(Cl)cc2)c(COc2ccc(-c3nc4cc(C(=O)O)ccc4n3C3CCSCC3)c(F)c2)c1 [Example 418, 2-{4-[2-(4-chlorophenyl)-5-(isopropylcarbamoyl)benzyloxy]-2-fluorophenyl}-1-(tetrahydrothiopyran-4-yl)benzimidazole-5-carboxylic acid hydrochloride] | 16 nM
O=C(O)c1ccc2c(c1)nc(-c1ccc(OCc3cc(N4CCCC4=O)ccc3-c3ccc(Cl)cc3)cc1F)n2C1CCSCC1 [Example 419, 2-{4-[2-(4-chlorophenyl)-5-(2-oxopyrrolidin-1-yl)benzyloxy]-2-fluorophenyl}-1-(tetrahydrothiopyran-4-yl)benzimidazole-5-carboxylic acid hydrochloride] | 21 nM
CC(C)NC(=O)c1ccc(-c2ccc(Cl)cc2)c(COc2ccc(-c3nc4cc(C(=O)O)ccc4n3N3CCCCC3)c(F)c2)c1 [Example 420, 2-{4-[2-(4-chlorophenyl)-5-(isopropylcarbamoyl)benzyloxy]-2-fluorophenyl}-1-piperidinobenzimidazole-5-carboxylic acid hydrochloride] | 15 nM
O=C(O)c1ccc2c(c1)nc(-c1ccc(OCc3cc(C(=O)N4CCCC4)ccc3-c3ccc(Cl)cc3)cc1F)n2N1CCCCC1 [Example 421, 2-{4-[2-(4-chlorophenyl)-5-(pyrrolidin-1-ylcarbonyl)benzyloxy]-2-fluorophenyl}-1-piperidinobenzimidazole-5-carboxylic acid] | 17 nM
O=C(O)c1ccc2c(c1)nc(-c1ccc(OCc3cc(C4=NCCN4)ccc3-c3ccc(Cl)cc3)cc1F)n2C1CCCCC1 [Example 422, 2-{4-[2-(4-chlorophenyl)-5-(2-imidazolin-2-yl)benzyloxy]-2-fluorophenyl}-1-cyclohexylbenzimidazole-5-carboxylic acid dihydrochloride] | 17 nM
O=C(O)c1ccc2c(c1)nc(-c1ccc(OCc3cc(N4CCOC4=O)ccc3-c3ccc(Cl)cc3)cc1F)n2C1CCCCC1 [Example 423, 2-{4-[2-(4-chlorophenyl)-5-(2-oxooxazolidin-3-yl)benzyloxy]-2-fluorophenyl}-1-cyclohexylbenzimidazole-5-carboxylic acid hydrochloride] | 17 nM
O=C(O)c1ccc2c(c1)nc(-c1ccc(OCc3cc(N4CCNC4=O)ccc3-c3ccc(Cl)cc3)cc1F)n2C1CCCCC1 [Example 424, 2-{4-[2-(4-chlorophenyl)-5-(2-oxoimidazolidin-1-yl)benzyloxy]-2-fluorophenyl}-1-cyclohexylbenzimidazole-5-carboxylic acid hydrochloride] | 20 nM
